{"source": "patent US20080020059A1", "about": "“COMPOSITIONS AND METHODS FOR TOPICAL TREATMENT OF SKIN INFECTION” (CHIOU CONSULTING, INC., priority 2003, published 2008)", "origin": "cited, not measured here", "tested_on": "acne", "details": "after 12 weeks of treatment", "data": [{"smiles": "CC[C@H]1OC(=O)[C@H](C)[C@@H](O[C@H]2C[C@@](C)(OC)[C@@H](O)[C@H](C)O2)[C@H](C)[C@@H](O[C@@H]2O[C@H](C)C[C@H](N(C)C)[C@H]2O)[C@](C)(O)C[C@@H](C)C(=O)[C@H](C)[C@@H](O)[C@]1(C)O", "note": "[erythromycin]", "values": [{"measurement": "patients showing satisfactory responses", "result": "about 50%"}]}]}
